In patent publication US20100008983A1 (priority 2008, published 2010):
Where a name gives a salt, the structure may show the parent alone. Read-outs that look alike come from different tables or passages of the source.

Details: stirring

Solubility (Observation: amount soluble, clear solution) (Capmul MCM (glyceryl mono- & dicaprate), RT): 64 mg/g soluble,
Solubility (Observation: amount soluble, clear solution) (Cremophor EL (polyoxyethylene castor oil derivative), RT): 25 mg/g soluble,
Solubility (Observation: amount soluble, clear solution) (Ethanol, RT): 66.6 mg/g soluble,
Solubility (Observation) (Gelucire 44/14 (Lauroyl macrogol-32 glyceride), 45-50° C.): Not soluble
Solubility (Observation) (Labrafil M 1944 CS (polyoxyethylated glycolysed glycerides), 37° C.): Not soluble
Solubility (Observation) (Labrafil M 1944 CS (polyoxyethylated glycolysed glycerides), RT): Not soluble
Solubility (Observation: amount soluble, clear solution) (Labrasol (Caprylocaproyl macrogol-8 glyceride), 37-40° C.): 10 mg/g soluble,
Solubility (Observation) (Miglyol 810 (Caprylic/Capric Triglyceride), 37° C.): Not soluble
Solubility (Observation) (Miglyol 810 (Caprylic/Capric Triglyceride), RT): Not soluble
Solubility (Observation: amount soluble, clear solution) (Polyethylene Glycol 400, RT): 25 mg/g soluble,
Solubility (Observation: amount soluble, clear solution) (Propylene Glycol, RT): 25 mg/g soluble,
Solubility (Observation) (Soybean oil, 37° C.): Not soluble
Solubility (Observation) (Soybean oil, RT): Not soluble
Solubility (Observation: amount soluble, clear solution) (Transcutol (2-(2-ethoxyethoxy)ethanol), RT): 25 mg/g soluble,
Solubility (Observation: amount soluble, clear solution) (Tween 80 (polyoxyethylene sorbitan fatty acid esters), RT): 10 mg/g soluble,
Compound: C#CCN[C@@H]1CCc2ccccc21 [Rasagiline mesylate, R(+)-N-propargyl-1-aminoindan]
